Assays:
Kasumi-1 = assay: Cancer cytotoxicity assay (Real-Time-Glo cell viability), Kasumi-1; assay type: cell-based; conditions: Homo sapiens, leukemia cell, 72 hr
Experimental: (§1) The cytotoxicity of Compounds 1, 3, 4, 6, 7, 8, 9, 10, 12 and 13 against cancer cell lines was determined. To determine the optimal plating density for cell viability assays, for each cell line, cells were counted and diluted to final densities of 2.5, 5, 10 and 20 thousand per 100 μL of their respective growth media per well in 96 well plates. The Promega Real-Time-Glo cell viability kit was used to determine the optimal concentration for cell plating so that each cell line would be within the linear part of its growth curve after 72 hrs in culture. For the determination of test compound IC50s, different cancer cell lines were plated in 96 well plates in the pre-determined optimal density for each cell line. Test compounds were then added at different concentrations for the creation of six-point curve and cell density was determined using the Promega Real-Time-Glo cell viability kit after 24, 48, and 72 hrs in culture.

FLT3 = target: T1, FLT3 (Homo sapiens, UniProt P36888); assay: Kinase assay (Eurofins DiscoverX KinaseProfiler / KdElect), FLT3; assay type: binding; conditions: read-out: FLT3 (Kd50 nM)
T1 construct: purchased Eurofins DiscoverX (contract service)
T1 sequence (P36888 27-993): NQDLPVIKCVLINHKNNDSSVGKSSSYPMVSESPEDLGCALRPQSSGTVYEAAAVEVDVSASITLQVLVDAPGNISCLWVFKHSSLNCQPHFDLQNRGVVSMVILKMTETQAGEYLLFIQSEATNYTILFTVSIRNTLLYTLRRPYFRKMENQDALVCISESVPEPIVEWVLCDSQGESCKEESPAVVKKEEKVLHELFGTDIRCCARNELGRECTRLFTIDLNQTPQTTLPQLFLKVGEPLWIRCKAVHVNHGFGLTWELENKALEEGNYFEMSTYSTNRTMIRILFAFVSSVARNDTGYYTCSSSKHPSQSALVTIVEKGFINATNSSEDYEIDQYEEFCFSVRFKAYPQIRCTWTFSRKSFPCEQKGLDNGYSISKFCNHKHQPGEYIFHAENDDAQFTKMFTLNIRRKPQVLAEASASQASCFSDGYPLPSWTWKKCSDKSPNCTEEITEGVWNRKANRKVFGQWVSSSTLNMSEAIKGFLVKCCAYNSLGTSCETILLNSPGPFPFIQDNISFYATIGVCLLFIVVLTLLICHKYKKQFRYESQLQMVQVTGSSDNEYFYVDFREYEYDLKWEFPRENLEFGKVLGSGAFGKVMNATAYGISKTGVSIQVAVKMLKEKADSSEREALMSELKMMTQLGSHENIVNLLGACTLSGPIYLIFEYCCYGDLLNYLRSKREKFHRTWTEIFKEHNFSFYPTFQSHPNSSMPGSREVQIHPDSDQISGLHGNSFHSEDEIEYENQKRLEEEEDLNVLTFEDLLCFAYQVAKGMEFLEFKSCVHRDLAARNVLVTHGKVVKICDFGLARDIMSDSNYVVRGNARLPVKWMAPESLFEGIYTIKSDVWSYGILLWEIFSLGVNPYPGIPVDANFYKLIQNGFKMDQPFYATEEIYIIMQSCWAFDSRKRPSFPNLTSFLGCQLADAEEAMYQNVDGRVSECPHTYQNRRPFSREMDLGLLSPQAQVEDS
Experimental: Stock solutions of the compounds being evaluated were prepared. The IC50 values were determined by the Eurofins DiscoverX services using either the KinaseProfiler or the KdElect kinase activity detection assays.

PLK4 = target: T2, PLK4 (Homo sapiens, UniProt O00444); assay: Kinase inhibition assay (Eurofins DiscoverX KinaseProfiler / KdElect), PLK4; assay type: biochemical
T2 construct: purchased Eurofins DiscoverX (contract service)
T2 sequence (O00444 1-970): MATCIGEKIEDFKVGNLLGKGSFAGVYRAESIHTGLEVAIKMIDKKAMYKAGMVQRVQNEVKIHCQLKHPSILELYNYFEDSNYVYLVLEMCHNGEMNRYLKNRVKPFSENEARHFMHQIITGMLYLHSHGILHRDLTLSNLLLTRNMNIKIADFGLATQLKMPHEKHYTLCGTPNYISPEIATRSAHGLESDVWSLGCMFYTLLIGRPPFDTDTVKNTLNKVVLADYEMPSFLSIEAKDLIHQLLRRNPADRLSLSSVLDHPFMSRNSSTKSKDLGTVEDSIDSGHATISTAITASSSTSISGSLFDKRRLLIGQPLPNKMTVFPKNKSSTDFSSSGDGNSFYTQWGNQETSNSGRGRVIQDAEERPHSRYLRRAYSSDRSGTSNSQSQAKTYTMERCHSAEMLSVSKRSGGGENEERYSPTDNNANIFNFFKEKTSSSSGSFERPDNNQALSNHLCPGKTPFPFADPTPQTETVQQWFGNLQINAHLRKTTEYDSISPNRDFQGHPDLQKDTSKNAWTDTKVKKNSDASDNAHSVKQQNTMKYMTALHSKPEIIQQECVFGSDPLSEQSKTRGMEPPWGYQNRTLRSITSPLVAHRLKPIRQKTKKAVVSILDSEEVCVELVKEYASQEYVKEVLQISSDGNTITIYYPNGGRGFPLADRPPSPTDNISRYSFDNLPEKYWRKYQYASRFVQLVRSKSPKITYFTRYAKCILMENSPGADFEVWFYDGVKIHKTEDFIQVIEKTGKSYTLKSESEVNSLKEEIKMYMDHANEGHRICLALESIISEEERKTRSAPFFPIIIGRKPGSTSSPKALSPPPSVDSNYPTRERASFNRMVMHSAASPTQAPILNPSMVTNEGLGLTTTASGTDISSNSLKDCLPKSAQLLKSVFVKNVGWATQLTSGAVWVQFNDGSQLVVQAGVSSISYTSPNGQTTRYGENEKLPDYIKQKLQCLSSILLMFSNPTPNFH
Experimental: (§2) The activity of Compounds 1, 3, 4, 6, 7, 8, 9, 10 and 13 in inhibiting CLK1, CLK4, PLK4, and FLT3 kinases was determined. Stock solutions of the compounds being evaluated were prepared. The IC50 values were determined by the Eurofins DiscoverX services using either the KinaseProfiler or the KdElect kinase activity detection assays.

CLK4 = target: T3, CLK4 (Homo sapiens, UniProt Q9HAZ1); assay: Kinase inhibition assay (Eurofins DiscoverX KinaseProfiler / KdElect), CLK4; assay type: biochemical
T3 construct: purchased Eurofins DiscoverX (contract service)
T3 sequence (Q9HAZ1 whole entry): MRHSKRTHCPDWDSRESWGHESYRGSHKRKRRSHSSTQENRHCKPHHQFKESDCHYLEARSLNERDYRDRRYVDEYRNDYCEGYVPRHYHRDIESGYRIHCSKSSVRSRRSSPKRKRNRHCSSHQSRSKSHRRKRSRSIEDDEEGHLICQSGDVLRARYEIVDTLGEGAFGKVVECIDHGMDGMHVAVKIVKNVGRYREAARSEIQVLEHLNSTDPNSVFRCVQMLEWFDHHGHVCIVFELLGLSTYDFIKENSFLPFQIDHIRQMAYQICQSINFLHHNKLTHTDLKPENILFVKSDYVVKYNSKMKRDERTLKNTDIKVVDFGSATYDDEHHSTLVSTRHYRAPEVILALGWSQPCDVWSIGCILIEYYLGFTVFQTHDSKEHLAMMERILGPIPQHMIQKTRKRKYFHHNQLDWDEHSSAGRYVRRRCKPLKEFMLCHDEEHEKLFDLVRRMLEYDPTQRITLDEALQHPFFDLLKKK
Experimental: as §2

786-O = assay: Cancer cytotoxicity assay (Real-Time-Glo cell viability), 786-O; assay type: cell-based; conditions: Homo sapiens, 786-0; kidney cancer, 72 hr
Experimental: as §1

A-498 = assay: Cancer cytotoxicity assay (Real-Time-Glo cell viability), A-498; assay type: cell-based; conditions: Homo sapiens, A498; kidney cancer, 72 hr
Experimental: as §1

SKOV-3 = assay: Cancer cytotoxicity assay (Real-Time-Glo cell viability), SKOV-3; assay type: cell-based; conditions: Homo sapiens, SK-OV-3; ovarian cancer cell line, 72 hr
Experimental: as §1

MV4-11 = assay: Cancer cytotoxicity assay (Real-Time-Glo cell viability), MV4-11; assay type: cell-based; conditions: Homo sapiens, leukemia cell, 72 hr
Experimental: as §1

Kasumi-3 = assay: Cancer cytotoxicity assay (Real-Time-Glo cell viability), Kasumi-3; assay type: cell-based; conditions: leukemia cell, 72 hr
Experimental: as §1

OV-90 = assay: Cancer cytotoxicity assay (Real-Time-Glo cell viability), OV-90; assay type: cell-based; conditions: Homo sapiens, ovarian cancer cell line, 72 hr
Experimental: as §1

HCT-116 = assay: Cancer cytotoxicity assay (Real-Time-Glo cell viability), HCT-116; assay type: cell-based; conditions: Homo sapiens, colorectal cancer cell line, 72 hr
Experimental: as §1

HT-29 = assay: Cancer cytotoxicity assay (Real-Time-Glo cell viability), HT-29; assay type: cell-based; conditions: Homo sapiens, colorectal cancer cell line, 72 hr
Experimental: as §1

CLK1 = target: T4, CLK1 (Homo sapiens, UniProt P49759); assay: Kinase inhibition assay (Eurofins DiscoverX KinaseProfiler / KdElect), CLK1; assay type: biochemical
T4 construct: purchased Eurofins DiscoverX (contract service)
T4 sequence (P49759 whole entry): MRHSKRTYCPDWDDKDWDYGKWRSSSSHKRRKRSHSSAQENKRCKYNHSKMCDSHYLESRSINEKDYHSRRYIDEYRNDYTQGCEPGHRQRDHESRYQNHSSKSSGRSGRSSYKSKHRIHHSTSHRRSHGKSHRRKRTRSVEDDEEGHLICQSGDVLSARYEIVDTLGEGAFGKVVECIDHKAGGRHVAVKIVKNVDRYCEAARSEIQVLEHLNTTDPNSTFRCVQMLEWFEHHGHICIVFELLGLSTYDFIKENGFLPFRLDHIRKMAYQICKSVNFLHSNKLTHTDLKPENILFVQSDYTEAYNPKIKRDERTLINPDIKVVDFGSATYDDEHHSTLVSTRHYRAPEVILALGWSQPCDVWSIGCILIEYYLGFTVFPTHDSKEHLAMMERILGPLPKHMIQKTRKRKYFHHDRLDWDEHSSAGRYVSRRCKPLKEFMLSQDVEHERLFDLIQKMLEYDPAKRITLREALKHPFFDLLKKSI
Experimental: as §2

Kd (FLT3) [µM]	IC50 (PLK4) [nM]	IC50 (CLK4) [nM]	IC50 (CLK1) [nM]	kinase selectivity (CLK1; among CLK1, CLK4, PLK4, FLT3)	SMILES	IC50 (Kasumi-1) [nM]	IC50 (786-O) [nM]	IC50 (A-498) [nM]	IC50 (SKOV-3) [nM]	IC50 (MV4-11) [nM]	IC50 (Kasumi-3) [nM]	IC50 (OV-90) [nM]	IC50 (HCT-116) [nM]	IC50 (HT-29) [nM]
1 to 5	< 1000	< 1000	< 1000		COc1cc2c(Nc3cc(C)[nH]n3)nc(N3CCC(F)(F)CC3)nc2cc1OCCCN1CCCC1 [Compound 3, 2-(4,4-difluoropiperidin-1-yl)-6-methoxy-N-(5-methyl-1H-pyrazol-3-yl)-7-(3-(pyrrolidin-1-yl)propoxy)quinazolin-4-amine]	> 10000	5000 to 10000	5000 to 10000	1000 to 5000	1000 to 5000	5000 to 10000	1000 to 5000	1000 to 5000	5000 to 10000
5 to 10	> 10000	5000 to 10000	1000 to 5000		COc1cc2c(Nc3cc(C)[nH]n3)nc(N3CCC3)nc2cc1OCCCN1CCCC1 [Compound 4, 2-(Azetidin-1-yl)-6-methoxy-N-(5-methyl-1H-pyrazol-3-yl)-7-(3-(pyrrolidin-1-yl)propoxy)quinazolin-4-amine]	> 10000	> 10000	> 10000	> 10000	5000 to 10000	> 10000	> 10000	1000 to 5000	> 10000
> 10	> 10000	5000 to 10000	< 1000	selective CLK1/4 inhibitor	COc1cc2c(Nc3cc(C)[nH]n3)nc(N3CCCC3)nc2cc1OCCCN1CCCC1 [Compound 1, 6-Methoxy-N-(5-methyl-1H-pyrazol-3-yl)-2-(pyrrolidin-1-yl)-7-(3-(pyrrolidin-1-yl)propoxy)quinazolin-4-amine]	1000 to 5000	5000 to 10000	1000 to 5000	1000 to 5000	< 1000	5000 to 10000	1000 to 5000	1000 to 5000	5000 to 10000
> 10	> 10000	< 1000	< 1000		COc1cc2c(Nc3ncc(C)s3)nc(N3CCC(F)(F)CC3)nc2cc1OCCCN1CCCC1 [Compound 9, N-(2-(4,4-difluoropiperidin-1-yl)-6-methoxy-7-(3-(pyrrolidin-1-yl)propoxy)quinazolin-4-yl)-5-methylthiazol-2-amine]	1000 to 5000	1000 to 5000	1000 to 5000	1000 to 5000	1000 to 5000	1000 to 5000	5000 to 10000	5000 to 10000	> 10000

From patent US20240199597A1, “SMALL MOLECULES FOR THE TREATMENT OF KINASE-RELATED DISEASES” (Athos Therapeutics, Inc., priority 2021, published 2024)
